Source: PubChem BioAssay (NCI)
“And” between values parts separate entries of the source, which are not always exact repeats. Equal values may be shown once.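 Cells were grown in 96-well plates and exposed to each compound for 48 hours at five concentrations; endpoints were interpolated linearly between bracketing concentrations, or set to the highest concentration if not reached. GI50 marks 50% less growth. TGI is the concentration that stops growth completely.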

Assays:
Test in all cases: NCI anticancer screen, dose series, 48 h
MDA-MB-435 = tested on: MDA-MB-435
EKVX NSCLC = tested on: EKVX NSCLC
RPMI-8226 leukemia = tested on: RPMI-8226 leukemia
SK-MEL-2 melanoma = tested on: SK-MEL-2 melanoma
MCF7 breast = tested on: MCF7 breast
OVCAR-5 ovarian = tested on: OVCAR-5 ovarian
HCC-2998 colon = tested on: HCC-2998 colon
OVCAR-4 ovarian = tested on: OVCAR-4 ovarian
LOX IMVI melanoma = tested on: LOX IMVI melanoma
NCI-H460 lung = tested on: NCI-H460 lung

| Structure (SMILES) | GI50 (MDA-MB-435) | TGI (MDA-MB-435) | GI50 (EKVX NSCLC) | TGI (EKVX NSCLC) | GI50 (RPMI-8226 leukemia) | TGI (RPMI-8226 leukemia) | GI50 (SK-MEL-2 melanoma) | TGI (SK-MEL-2 melanoma) | GI50 (MCF7 breast) | TGI (MCF7 breast) | GI50 (OVCAR-5 ovarian) | TGI (OVCAR-5 ovarian) | GI50 (HCC-2998 colon) | TGI (HCC-2998 colon) | GI50 (OVCAR-4 ovarian) | TGI (OVCAR-4 ovarian) | GI50 (LOX IMVI melanoma) | TGI (LOX IMVI melanoma) | GI50 (NCI-H460 lung) | TGI (NCI-H460 lung) |
| --- | --- | --- | --- | --- | --- | --- | --- | --- | --- | --- | --- | --- | --- | --- | --- | --- | --- | --- | --- | --- |
| Cc1cccc(-c2nn3c(c2-c2ccnc4ccc(C(N)=O)cc24)CCC3)n1 | > 91400 nM | > 100000 nM | > 100000 nM | > 100 µM | > 100000 nM | > 100 µM | > 100000 nM | > 100 µM | > 100000 nM | > 100 µM | > 100000 nM | > 100 µM | > 100000 nM | > 100 µM | > 100000 nM | > 100 µM | > 100000 nM | > 100 µM | > 100000 nM | > 100 µM |
| CCc1c2c(nc3cc4c(c(N)c13)OCO4)-c1cc3c(c(=O)n1C2)COC(=O)[C@]3(O)CC | 24.1 nM and 79.6 nM | 2010 nM and 1960 nM | 1930 nM and 962 nM | 48.7 µM | – | 0.317 µM and 2.77 µM | – | 0.0424 µM | < 1 nM | 0.0298 µM | 702 nM and 94.8 nM | 0.409 µM | 31.7 nM and 43.1 nM | 6.38 µM and 0.676 µM | 130 nM and 350 nM | > 100 µM | < 1 nM | 0.134 µM and 0.19 µM | < 1 nM | 0.47 µM and 0.157 µM |
| COc1cccc(Cn2c(-c3nonc3N)nc3ccccc32)c1 | 201 nM | 549 nM | – | – | 377 nM | > 100 µM | 353 nM | 15.4 µM | 383 nM | > 100 µM | 1170 nM | > 68 µM | 1470 nM | > 100 µM | 2260 nM | > 65.9 µM | 547 nM | > 100 µM | 378 nM | > 34.6 µM |
| C=CC(=O)N1C/C(=C\c2ccccc2)C(=O)/C(=C/c2ccccc2)C1 | 270 nM | 2100 nM | – | 9.42 µM | 170 nM | 0.871 µM and 1.08 µM | – | 4.81 µM | 395 nM | 2.06 µM | – | 5.72 µM | – | 3.67 µM | – | 6.6 µM | 357 nM | 0.638 µM | – | 4.47 µM |
| O=C1/C=C/[C@@H](O)[C@@H]2C[C@@H](O)C[C@H]2/C=C/CCC[C@H](CCc2ccc(C(F)(F)F)cc2)O1 | 243 nM | > 72100 nM | 252 nM | 6.67 µM | 282 nM | 0.806 µM | 349 nM | 1.41 µM | 197 nM | 0.457 µM | 505 nM | > 100 µM | 238 nM | 3.87 µM | 198 nM | 2.78 µM | 161 nM | 0.423 µM | 388 nM | > 55.4 µM |
| CN1CCC(CNc2ccc3ncc(-c4cccc(OC(F)(F)F)c4)n3n2)CC1 | 1420 nM and 1540 nM | 2960 nM and 3400 nM | 3450 nM and 9780 nM | 14.5 µM and > 10 µM | 2410 nM and 1910 nM | 7.18 µM and 5.36 µM | 1640 nM and 1760 nM | 3.25 µM and 4.34 µM | 1610 nM and 1810 nM | 3.25 µM and 5.46 µM | 2680 nM and 2950 nM | 8.32 µM and > 10 µM | 1570 nM and 1450 nM | 3.15 µM and 3.32 µM | 2390 nM and 3810 nM | 8.21 µM and > 10 µM | 1560 nM and 1470 nM | 3.2 µM and 2.85 µM | 2160 nM and 2940 nM | 5.68 µM and > 10 µM |
| COc1ccc(-c2nsc3c2NC(=O)CC3c2ccc(F)cc2)cc1 (centres undefined) | 513 nM | 2430 nM | – | – | 4940 nM | > 100 µM | 3220 nM | 12 µM | 3290 nM | > 100 µM | 5940 nM | > 100 µM | > 21700 nM | > 100 µM | 12700 nM | > 100 µM | 7180 nM | > 100 µM | 3460 nM | > 100 µM |
| Cc1cc(C(=O)Nc2nc3cccc(Cl)c3n2[C@@H]2CCCCN(C(=O)/C=C/CN(C)C)C2)ccn1 | 9490 nM | 23300 nM | 518 nM | 18.7 µM | 9250 nM | 32 µM | 17500 nM | 34.2 µM | 4950 nM | 20.3 µM | 17700 nM | 47.6 µM | 15600 nM | 30.9 µM | 7180 nM | 26.4 µM | 10100 nM | 23.9 µM | 8700 nM | 23.1 µM |
| CC1=C(C(=O)Nc2ccccc2C)C(c2ccc(C3C(C(=O)Nc4ccccc4C)=C(C)NC(C)=C3C(=O)Nc3ccccc3C)cc2)C(C(=O)Nc2ccccc2C)=C(C)N1 | – | 14300 nM | – | 19.2 µM | – | 7.85 µM | – | 31.6 µM | – | 19.5 µM | – | 31.8 µM | – | 9.31 µM | – | 22.1 µM | – | 3.63 µM | – | 24.9 µM |
| O=c1[nH]cc(/C=N\Nc2ccccc2)c(=O)[nH]1 | – | > 100000 nM | – | > 100 µM | – | > 100 µM | – | > 100 µM | – | > 100 µM | – | > 100 µM | – | > 100 µM | – | > 100 µM | – | > 100 µM | – | > 100 µM |
| C/C1=C/C(=O)O[C@@H]2C[C@@H](CC[C@H](C)/C=C\C=C\CC1)O[C@@](O)([C@@H]1CSC(=O)N1CO)C2 | 290 nM | > 88600 nM | 144 nM | > 100 µM | 161 nM | 23.1 µM | 79.6 nM | 34.9 µM | 13100 nM | 37.7 µM | 36.7 nM | > 33.9 µM | 13000 nM | 65.4 µM | 176 nM | 20.4 µM | 22.8 nM | 11.1 µM | 241 nM | 34.1 µM |
| COC(=O)[C@H]1C(=O)[C@@]2(C)[C@H]([C@H](OC(=O)c3ccccc3)[C@]3(O)C[C@H](OC(=O)[C@H](O)[C@@H](NC(=O)c4ccc(F)cc4)c4ccccc4)C(C)=C1C3(C)C)[C@]1(OC(C)=O)CO[C@@H]1C[C@@H]2O | 2.5 nM | 6.04 nM | 18.1 nM | > 25 µM | 4.84 nM | 0.271 µM | – | – | 3.54 nM | > 25 µM | 14.9 nM | > 25 µM | 9.09 nM | > 9.55 µM | 633 nM | > 25 µM | 9.74 nM | > 25 µM | 7.39 nM | 3.64 µM |
| Nc1ccccc1SC(CC(=O)c1ccccc1)c1ccc([N+](=O)[O-])cc1 (centres undefined) | 14300 nM | 28000 nM | – | – | 2910 nM | 9.06 µM | 18000 nM | 33 µM | 3310 nM | 16.1 µM | 16600 nM | 30.6 µM | 15800 nM | 29.6 µM | 12600 nM | 25.9 µM | 1910 nM | 4.15 µM | 17300 nM | 36 µM |
